Laboratory results reported in patent US20080207522A1, “Antimicrobial Peptides” (priority 2004, published 2008).

What was measured:
[1] = tested on: Pseudomonas aeruginosa strain H1001; assay: Assay for the cleaved (free, soluble) peptides from cellulose support, luminescence killing assay; type: cell-based; set-up: key: 1: Peptides showing stronger killing than Bac2A at a 4 to 8-fold higher dilution; Peptides showing stronger killing compared to that of Bac2A at a 4-fold higher dilution; 3: Peptides similar to Bac2A; 4: Peptides similar to Bac2A at the highest concentration but demonstrating weaker killing at a 2-fold dilution; 5: Peptides giving very weak or no killing at a 2-fold dilution; 6: Peptides with weak killing activity at the highest concentration; details: free (cleaved) peptides, killing relative to Bac2A
Experimental: Assay for the cleaved peptides from cellulose support. The peptides were cleaved from the dried membrane in an ammonia atmosphere overnight, resulting in free peptides with an amidated C-terminus. The free peptides contained two β-alanines at the C-terminus, in addition to being amidated due to the linker between the cellulose membrane and the peptide sequence. The peptide spots were punched out and transferred in a 96-well microtiter plate. Serial dilutions were carried out from the membrane spots. Four rows were filled with four controls including two with Bac2A and two with of an unrelated peptide. The other eight rows were used for serial dilution steps of the peptide variants. An overnight culture of Pseudomonas aeruginosa strain H1001 was diluted 1:500 using either LB media or 100 mM Tris buffer pH 7.3, 20 mM glucose and was added to the wells (100 μl/well) containing the peptide spots. In all other wells 50 μl were added. The microtiter plate was incubated for 30 min at 37° C. to release the peptides from the membrane. Subsequently, a dilution series were performed and the plate was incubated at 37° C. The luminescence produced by the ATP dependent luciferase system were detected in a time dependent manner using a Tecan Spectra Fluor plus.
(§1) Strains. For the killing assay a mini-Tn5-lux mutant in Pseudomonas aeruginosa H103 was used. The strain is called H1001 and contains a fliC::luxCDABE transcriptional fusion resulting in constitutive expression of luciferase. The bacterial strains used for the antimicrobial activity assays included Escherichia coli UB1005 (F-, nalA37, metB1), a wild-type Salmonella enterica ssp. Typhimurium (S. Typhimurium), wild-type Pseudomonas aeruginosa PAO1 strain H103, Enterococcus faecalis ATCC29212, Staphylococcus aureus ATCC25923, and a clinical isolate of Staphylococcus epidermidis obtained from Dr. D. Speert (Department of Medicine, University of British Columbia). Antifungal activity was tested using a lab isolate of Candida albicans obtained from Dr. B. Dill (Department of Microbiology and Immunology, University of British Columbia).
Peptide synthesis on cellulose is a very effective and inexpensive way to investigate many different peptide variants for one particular activity. However, one of the problems of this technique is the low peptide density synthesized on the membrane, about 280 nmol per cm2. An average peptide spot used for the experiments presented is about 0.3 cm2. Therefore, an assay had to be developed that was sensitive enough to show activity with this amount of peptides. P. aeruginosa H1001 has a reporter system (e.g., a luciferase gene cassette) incorporated into the bacterial chromosome in the fliC gene (involved in flagellar biosynthesis) that is constitutively expressed. It will thus produce light if ATP is present. When this strain is killed, e.g. by peptides, the amount of light produced will decrease due to a decrease in ATP levels in the killed cells. This action can thus be monitored by detecting luminescence in a microtiter plate luminescence reader over time. The volume and amount of cells per well were optimized for this assay. After screening, the killing action was monitored with small amounts of the parent peptide Bac2A (2 μg/ml of free peptide).
Forty-nine scrambled peptides (Bac002-Bac050) were synthesized on the cellulose support and then cleaved by ammonia gas resulting in free peptides with an amidated C-terminus including the linker. The peptide spots were transferred to a 96-well microtiter plate and incubated for 30 min to dissociate the peptides from the cellulose. After serial dilution and addition of strain H1001, luminescence was recorded in a time dependent manner (FIG. 1). All 50 scrambled peptides were compared to Bac2A ([…]-NH2; SEQ ID NO: 1) by this assay (see Table 2). […] Further since all scrambled peptides had some activity, a sequence-specific interaction of the peptides with a receptor or target could be excluded.

[2] = tested on: Pseudomonas aeruginosa strain H1001 fliC::luxCDABE; assay: Luminescence-based assay for the non-cleaved (bound) peptides on cellulose membranes; type: cell-based; details: for Luminescence at the given time in minutes: 0 / Luminescence at the given time in minutes: 20 / Luminescence at the given time in minutes: 40 / Luminescence at the given time in minutes: 60 / Luminescence at the given time in minutes: 80 / Luminescence at the given time in minutes: 100 / Luminescence at the given time in minutes: 120 / Luminescence at the given time in minutes: 180 / Luminescence at the given time in minutes: 240: cellulose-bound peptide; for Luminescence at the given time in minutes: 0: 0 min; for Luminescence at the given time in minutes: 20: 20 min; for Luminescence at the given time in minutes: 40: 40 min; for Luminescence at the given time in minutes: 60: 60 min; for Luminescence at the given time in minutes: 80: 80 min; for Luminescence at the given time in minutes: 100: 100 min; for Luminescence at the given time in minutes: 120: 120 min; for Luminescence at the given time in minutes: 180: 180 min; for Luminescence at the given time in minutes: 240: 240 min; for Activity Class bound: uncleaved cellulose-bound peptides
Experimental: Luminescence-based MIC assay for the non-cleaved peptides on cellulose membranes. The peptide spots were punched out and transferred to a 96 well microtiter plate with a clear polystyrene bottom and opaque white polypropylene sides (PerkinElmer, Boston, USA). The spots were washed two times with 100% ethanol for 5 min and afterwards equilibrated five times with 100 mM Tris buffer pH 7.3 for 5 min. An overnight culture of Pseudomonas aeruginosa strain H1001 fliC::luxCDABE was diluted 1:50 in new MH medium and incubated at 37° C. to an OD600 of 0.35. This bacterial culture was diluted 1:25 into 10 mM Tris-HCl buffer, pH 7.3 containing 20 mM glucose. Fifty μl of this culture was added to all wells of the microtiter plate and incubated at 37° C. The luminescence of the strain produced by the ATP-dependent luciferase system was detected in a time dependent manner using a Tecan Spectra Fluor plus (Tecan, Austria). At the end of the experiment, the membranes were cleaned by washing the spots two times with 100% ethanol for five minutes. After removing the ethanol the membrane was air-dried.
as §1
The same set of peptides, as well as the reversed sequence of Bac2A-R ([…]; SEQ ID NO: 2166), were synthesized on cellulose and left uncleaved. The production of light was initially compared in wells containing spots of Bac2A, Bac2A-R (with the reversed sequence of Bac2A), the unrelated negative-control peptide, or, as additional controls, only cellulose, or only bacteria (FIG. 2).
As a control, the negative control (unrelated) peptide Bac429 and parent peptide Bac2A (=Bac001) were used in several different wells of the microtiter plate. Luminescence (relative light units; RLU) was measured at 14 different time points, 9 of which are shown. To permit comparison of the data with the free peptide data set, the result for each peptide was classified into six different groups, like the data set with the free peptides (Table 2). […] For the soluble peptides the following classes were established: […]

Sequence	Activity Class Soluble [1]	Luminescence at the given time in minutes: 0 [2] [RLU]	Luminescence at the given time in minutes: 20 [2] [RLU]	Luminescence at the given time in minutes: 40 [2] [RLU]	Luminescence at the given time in minutes: 60 [2] [RLU]	Luminescence at the given time in minutes: 80 [2] [RLU]	Luminescence at the given time in minutes: 100 [2] [RLU]	Luminescence at the given time in minutes: 120 [2] [RLU]	Luminescence at the given time in minutes: 180 [2] [RLU]	Luminescence at the given time in minutes: 240 [2] [RLU]	Activity Class bound [2]
IAARRLIRVVRV [Bac012]	3	4045	7171	5701	5037	4631	4418	4182	4344	5087	6 (Peptides having residual luminescence (lux) values greater than 3000 after 240 min.)
RVLIAARVIRRV [Bac047]	3	4733	6747	5100	4770	4031	3383	3012	2829	2615	5 (Peptides reducing luminescence (lux) values to between 1500 to 3000 after 240 min.)
VIVRLAARRVRI [Bac028]	5	5001	6828	5315	5037	4555	4143	3762	3646	4268	6 (Peptides having residual luminescence (lux) values greater than 3000 after 240 min.)
VLIRIRRVARAV [Bac008]	2	3718	6695	5154	4426	3671	3164	2786	2703	2890	5 (Peptides reducing luminescence (lux) values to between 1500 to 3000 after 240 min.)
VVIRAAIRRVRL [Bac038]	5	5024	7158	5307	4676	4112	3323	2739	2466	2576	5 (Peptides reducing luminescence (lux) values to between 1500 to 3000 after 240 min.)
AVRAIRVLRVIR [Bac015]	3	4309	7112	5227	3783	2656	1785	1398	1244	1320	4 (Peptides reducing luminescence (lux) values to between 500 to 1499 after 240 min.)
ILVARVIRRRVA [Bac019]	5	5239	7569	5731	4741	3822	3000	2373	1908	1570	5 (Peptides reducing luminescence (lux) values to between 1500 to 3000 after 240 min.)
AVRVRRRAILVI [Bac011]	4	4516	7019	5176	3694	2076	1222	816	494	447	3 (Peptides similar to Bac2A resulting in lux values of less than 500 after 240 min.)
IRVRRLVAAVIR [Bac033]	5	4795	6539	4785	4155	3565	3095	2639	2613	2962	5 (Peptides reducing luminescence (lux) values to between 1500 to 3000 after 240 min.)
ARIARRVRILVV [Bac021]	4	5470	7247	4581	1967	683	278	196	129	128	3 (Peptides similar to Bac2A resulting in lux values of less than 500 after 240 min.)
